In US11414387B2, “Oxoacridinyl acetic acid derivatives and methods of use” (Stingthera, Inc., priority 2017, dated 2022):

The molecules below were run against mSTING (Mus musculus, UniProt Q3TBT3) (assay: Radiometric filtration binding competition assay, mSTING). Conditions: not given.

IC50 [µM] | Compound
< 20 | COc1c(Cl)ccc2c(=O)c3ccc(Nc4ccccc4Cl)cc3n(CC(=O)O)c12 [Compound 267]
< 20 | COc1ccccc1Nc1ccc2c(=O)c3ccc(Cl)c(OC)c3n(CC(=O)O)c2c1 [Compound 298]
< 20 | COc1c(Cl)ccc2c(=O)c3ccc(Nc4ccc(OC(F)(F)F)cc4)cc3n(CC(=O)O)c12 [Compound 266]
> 300 | COCCOc1c(Cl)ccc2c(=O)c3ccccc3n(CC(=O)O)c12 [Compound 330]
< 20 | CCSc1ccc2c(=O)c3ccc(Cl)c(OC)c3n(CC(=O)O)c2c1 [Compound 231]
< 20 | COc1c(Cl)ccc2c(=O)c3ccc(-c4ccc(N)cc4)cc3n(CC(=O)O)c12 [Compound 274]
< 20 | COc1c(Cl)ccc2c(=O)c3ccc(Nc4cnccn4)cc3n(CC(=O)O)c12 [Compound 263]

Continued, molecule first:

Compound | IC50 [µM]
COc1c(Cl)ccc2c(=O)c3ccc(-c4cccc(O)c4)cc3n(CC(=O)O)c12 [Compound 270] | < 20
Cc1ccc2c(=O)c3ccc(Cl)c(N(C)C)c3n(CC(=O)O)c2c1 [Compound 308] | < 20
COc1c(Cl)ccc2c(=O)c3ccc(-c4ccc(O)cc4)cc3n(CC(=O)O)c12 [Compound 269] | < 20
Cc1ccc2c(=O)c3ccc(Cl)c(-c4ccccc4)c3n(CC(=O)O)c2c1 [Compound 326] | < 20
CCc1ccc2c(=O)c3ccc(Cl)c(OC)c3n(CC(=O)O)c2c1 [Compound 294] | 20 to 100
COc1c(Cl)ccc2c(=O)c3ccc(NC4CCC4)cc3n(CC(=O)O)c12 [Compound 292] | < 20
C=CCOc1c(Cl)ccc2c(=O)c3ccc(C)cc3n(CC(=O)O)c12 [Compound 311] | < 20
O=C(O)Cn1c2ccccc2c(=O)c2ccc(Br)c(Br)c21 [Compound 108] | 100 to 300
O=C(O)Cn1c2ccccc2c(=O)c2ccc(Cl)c(OCCCO)c21 [Compound 329] | > 300
O=C(O)Cn1c2cc(Nc3ccccc3)ccc2c(=O)c2ccc(Cl)c(Br)c21 [Compound 206] | < 20
CCOc1c(Cl)ccc2c(=O)c3ccccc3n(CC(=O)O)c12 [Compound 244] | 20 to 100

These molecules were tested against hSTING-WT (Homo sapiens (Human), UniProt Q86WV6, H232R) (assay: Radiometric filtration binding competition assay, hSTING-WT). Conditions: not given.
Sequence of hSTING-WT (Q86WV6 140-379 H232R): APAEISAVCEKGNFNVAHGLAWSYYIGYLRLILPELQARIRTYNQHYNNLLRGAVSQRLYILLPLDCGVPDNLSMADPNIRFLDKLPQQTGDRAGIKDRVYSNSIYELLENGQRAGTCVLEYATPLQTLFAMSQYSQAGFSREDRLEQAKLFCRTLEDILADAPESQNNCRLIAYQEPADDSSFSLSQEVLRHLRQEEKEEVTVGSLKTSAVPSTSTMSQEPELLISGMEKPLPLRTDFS

IC50 [µM] | Compound
< 20 | COc1c(Cl)ccc2c(=O)c3ccc(Nc4ccccc4Cl)cc3n(CC(=O)O)c12 [Compound 267]
20 to 100 | COc1ccccc1Nc1ccc2c(=O)c3ccc(Cl)c(OC)c3n(CC(=O)O)c2c1 [Compound 298]
< 20 | COc1c(Cl)ccc2c(=O)c3ccc(Nc4ccc(OC(F)(F)F)cc4)cc3n(CC(=O)O)c12 [Compound 266]
> 300 | COCCOc1c(Cl)ccc2c(=O)c3ccccc3n(CC(=O)O)c12 [Compound 330]
20 to 100 | CCSc1ccc2c(=O)c3ccc(Cl)c(OC)c3n(CC(=O)O)c2c1 [Compound 231]
< 20 | COc1c(Cl)ccc2c(=O)c3ccc(-c4ccc(N)cc4)cc3n(CC(=O)O)c12 [Compound 274]
20 to 100 | COc1c(Cl)ccc2c(=O)c3ccc(Nc4cnccn4)cc3n(CC(=O)O)c12 [Compound 263]

The remaining lines, values behind:

Compound | IC50 [µM]
COc1c(Cl)ccc2c(=O)c3ccc(-c4cccc(O)c4)cc3n(CC(=O)O)c12 [Compound 270] | < 20
Cc1ccc2c(=O)c3ccc(Cl)c(N(C)C)c3n(CC(=O)O)c2c1 [Compound 308] | < 20
COc1c(Cl)ccc2c(=O)c3ccc(-c4ccc(O)cc4)cc3n(CC(=O)O)c12 [Compound 269] | < 20
Cc1ccc2c(=O)c3ccc(Cl)c(-c4ccccc4)c3n(CC(=O)O)c2c1 [Compound 326] | < 20
CCc1ccc2c(=O)c3ccc(Cl)c(OC)c3n(CC(=O)O)c2c1 [Compound 294] | 20 to 100
COc1c(Cl)ccc2c(=O)c3ccc(NC4CCC4)cc3n(CC(=O)O)c12 [Compound 292] | < 20
C=CCOc1c(Cl)ccc2c(=O)c3ccc(C)cc3n(CC(=O)O)c12 [Compound 311] | 20 to 100
O=C(O)Cn1c2ccccc2c(=O)c2ccc(Br)c(Br)c21 [Compound 108] | > 300
O=C(O)Cn1c2ccccc2c(=O)c2ccc(Cl)c(OCCCO)c21 [Compound 329] | > 300
O=C(O)Cn1c2cc(Nc3ccccc3)ccc2c(=O)c2ccc(Cl)c(Br)c21 [Compound 206] | 20 to 100
CCOc1c(Cl)ccc2c(=O)c3ccccc3n(CC(=O)O)c12 [Compound 244] | 100 to 300

These molecules were tested against mSTING-R232 (Mus musculus, UniProt Q3TBT3) (assay: STING differential scanning fluorimetry (DSF) assay, mouse STING). Conditions: net shift in melting temperature.
Method: A STING DSF assay was performed to determine protein thermostability shift in response to small molecule ligand binding. A STING thermostability shift assay based on differential scanning fluorimetry was used to measure (1) the net shift in melting temperature (ΔTm)between the apo and ligand-bound states of the STING protein and (2) the concentration of the thermal denaturation transition (EC50) as a surrogate measure of binding affinity (K). […] Protein in assay buffer was transferred to a 384 well plate and incubated with the hydrophobic fluorescent dye SYBR Orange. A temperature ramp was applied to the plate and the resulting dye fluorescence was plotted as a function of temperature. The first derivative of this function (dF/dT) was then used to extrapolate the melting temperature of the protein at various concentrations of compound and determine the thermal denaturation profile of a protein/compound complex.
• 1. Protein construct (affinity tag removal vs SUMO-fusion construct) • 2. Protein concentration • 3. Dye concentration • 4. Buffer • 5. Thermal ramp velocity • 6. DMSO tolerance • 7. Compound titration parameters • 8. […] 5 μM purified Target STING Protein • 3. 8 μM Sypro Orange Dye • 4. Buffer: 100 mM NaCl, 30 mM HEPES, pH 7.5 • 5. Thermal Ramp: 0.5° C./min • 6. <1% DMSO • 7. 11 point, 2 fold dilution, duplicate, 300 μM high concentrations • 8.

MOUSE DSF_6xHIS-SUMO Tm Shift (° C.) | Compound
D (“D” > 15° C.) | COc1c(Cl)ccc2c(=O)c3ccc(Nc4ccccc4Cl)cc3n(CC(=O)O)c12 [Compound 267]
D (“D” > 15° C.) | COc1ccccc1Nc1ccc2c(=O)c3ccc(Cl)c(OC)c3n(CC(=O)O)c2c1 [Compound 298]
D (“D” > 15° C.) | COc1c(Cl)ccc2c(=O)c3ccc(Nc4ccc(OC(F)(F)F)cc4)cc3n(CC(=O)O)c12 [Compound 266]
B (“B” = 0-5° C.) | COCCOc1c(Cl)ccc2c(=O)c3ccccc3n(CC(=O)O)c12 [Compound 330]
D (“D” > 15° C.) | CCSc1ccc2c(=O)c3ccc(Cl)c(OC)c3n(CC(=O)O)c2c1 [Compound 231]
D (“D” > 15° C.) | COc1c(Cl)ccc2c(=O)c3ccc(-c4ccc(N)cc4)cc3n(CC(=O)O)c12 [Compound 274]
D (“D” > 15° C.) | COc1c(Cl)ccc2c(=O)c3ccc(Nc4cnccn4)cc3n(CC(=O)O)c12 [Compound 263]

The remaining lines, values behind:

Compound | MOUSE DSF_6xHIS-SUMO Tm Shift (° C.)
COc1c(Cl)ccc2c(=O)c3ccc(-c4cccc(O)c4)cc3n(CC(=O)O)c12 [Compound 270] | D (“D” > 15° C.)
Cc1ccc2c(=O)c3ccc(Cl)c(N(C)C)c3n(CC(=O)O)c2c1 [Compound 308] | D (“D” > 15° C.)
COc1c(Cl)ccc2c(=O)c3ccc(-c4ccc(O)cc4)cc3n(CC(=O)O)c12 [Compound 269] | D (“D” > 15° C.)
Cc1ccc2c(=O)c3ccc(Cl)c(-c4ccccc4)c3n(CC(=O)O)c2c1 [Compound 326] | D (“D” > 15° C.)
CCc1ccc2c(=O)c3ccc(Cl)c(OC)c3n(CC(=O)O)c2c1 [Compound 294] | C (“C” = 5-15° C.)
COc1c(Cl)ccc2c(=O)c3ccc(NC4CCC4)cc3n(CC(=O)O)c12 [Compound 292] | D (“D” > 15° C.)
C=CCOc1c(Cl)ccc2c(=O)c3ccc(C)cc3n(CC(=O)O)c12 [Compound 311] | C (“C” = 5-15° C.)
O=C(O)Cn1c2ccccc2c(=O)c2ccc(Br)c(Br)c21 [Compound 108] | C (“C” = 5-15° C.)
O=C(O)Cn1c2ccccc2c(=O)c2ccc(Cl)c(OCCCO)c21 [Compound 329] | C (“C” = 5-15° C.)
O=C(O)Cn1c2cc(Nc3ccccc3)ccc2c(=O)c2ccc(Cl)c(Br)c21 [Compound 206] | D (“D” > 15° C.)
CCOc1c(Cl)ccc2c(=O)c3ccccc3n(CC(=O)O)c12 [Compound 244] | C (“C” = 5-15° C.)

What follows are molecules tested against hSTING-R232 (Homo sapiens (Human), UniProt Q86WV6, H232R) (assay: STING differential scanning fluorimetry (DSF) assay, WT human STING). Conditions: WT (R232) human STING aa140-379, net shift in melting temperature.
Sequence of hSTING-R232 (Q86WV6 140-379 H232R): as above

WT_DSF_hSWAT Tm Shift (° C.) | Compound
D (“D” > 7° C.) | COc1c(Cl)ccc2c(=O)c3ccc(Nc4ccccc4Cl)cc3n(CC(=O)O)c12 [Compound 267]
D (“D” > 7° C.) | COc1ccccc1Nc1ccc2c(=O)c3ccc(Cl)c(OC)c3n(CC(=O)O)c2c1 [Compound 298]
D (“D” > 7° C.) | COc1c(Cl)ccc2c(=O)c3ccc(Nc4ccc(OC(F)(F)F)cc4)cc3n(CC(=O)O)c12 [Compound 266]
B (“B” = 0-2° C.) | COCCOc1c(Cl)ccc2c(=O)c3ccccc3n(CC(=O)O)c12 [Compound 330]
D (“D” > 7° C.) | CCSc1ccc2c(=O)c3ccc(Cl)c(OC)c3n(CC(=O)O)c2c1 [Compound 231]
D (“D” > 7° C.) | COc1c(Cl)ccc2c(=O)c3ccc(-c4ccc(N)cc4)cc3n(CC(=O)O)c12 [Compound 274]
D (“D” > 7° C.) | COc1c(Cl)ccc2c(=O)c3ccc(Nc4cnccn4)cc3n(CC(=O)O)c12 [Compound 263]

The remaining lines, values behind:

Compound | WT_DSF_hSWAT Tm Shift (° C.)
COc1c(Cl)ccc2c(=O)c3ccc(-c4cccc(O)c4)cc3n(CC(=O)O)c12 [Compound 270] | D (“D” > 7° C.)
Cc1ccc2c(=O)c3ccc(Cl)c(N(C)C)c3n(CC(=O)O)c2c1 [Compound 308] | D (“D” > 7° C.)
COc1c(Cl)ccc2c(=O)c3ccc(-c4ccc(O)cc4)cc3n(CC(=O)O)c12 [Compound 269] | D (“D” > 7° C.)
Cc1ccc2c(=O)c3ccc(Cl)c(-c4ccccc4)c3n(CC(=O)O)c2c1 [Compound 326] | D (“D” > 7° C.)
CCc1ccc2c(=O)c3ccc(Cl)c(OC)c3n(CC(=O)O)c2c1 [Compound 294] | D (“D” > 7° C.)
COc1c(Cl)ccc2c(=O)c3ccc(NC4CCC4)cc3n(CC(=O)O)c12 [Compound 292] | D (“D” > 7° C.)
C=CCOc1c(Cl)ccc2c(=O)c3ccc(C)cc3n(CC(=O)O)c12 [Compound 311] | D (“D” > 7° C.)
O=C(O)Cn1c2ccccc2c(=O)c2ccc(Br)c(Br)c21 [Compound 108] | C (“C” = 2-7° C,)
O=C(O)Cn1c2ccccc2c(=O)c2ccc(Cl)c(OCCCO)c21 [Compound 329] | B (“B” = 0-2° C.)
O=C(O)Cn1c2cc(Nc3ccccc3)ccc2c(=O)c2ccc(Cl)c(Br)c21 [Compound 206] | D (“D” > 7° C.)
CCOc1c(Cl)ccc2c(=O)c3ccccc3n(CC(=O)O)c12 [Compound 244] | D (“D” > 7° C.)

Each molecule was assayed against STING protein (Homo sapiens (Human), UniProt Q86WV6, H232R) (assay: Cell based reporter assay of IRF activation (IRF-luciferase), THP1-dual-KI R232). Conditions: read-out: THP1-dual-KI R232_IRF(Luciferase)_Activity Maximum measured (%).
Sequence of STING protein (Q86WV6 whole entry H232R): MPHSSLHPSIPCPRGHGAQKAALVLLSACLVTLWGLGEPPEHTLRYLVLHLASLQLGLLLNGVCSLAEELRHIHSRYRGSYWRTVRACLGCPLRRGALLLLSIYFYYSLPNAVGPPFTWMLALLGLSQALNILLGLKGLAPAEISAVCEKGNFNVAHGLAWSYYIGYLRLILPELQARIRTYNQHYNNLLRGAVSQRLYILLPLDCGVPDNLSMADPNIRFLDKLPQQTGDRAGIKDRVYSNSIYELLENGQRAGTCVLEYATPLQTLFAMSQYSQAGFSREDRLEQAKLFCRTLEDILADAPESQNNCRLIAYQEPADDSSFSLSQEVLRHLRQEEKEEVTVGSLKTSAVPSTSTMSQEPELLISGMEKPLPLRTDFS

Emax [%] | Compound
> 50 | COc1c(Cl)ccc2c(=O)c3ccc(Nc4ccccc4Cl)cc3n(CC(=O)O)c12 [Compound 267]
> 50 | COc1ccccc1Nc1ccc2c(=O)c3ccc(Cl)c(OC)c3n(CC(=O)O)c2c1 [Compound 298]
> 50 | COc1c(Cl)ccc2c(=O)c3ccc(Nc4ccc(OC(F)(F)F)cc4)cc3n(CC(=O)O)c12 [Compound 266]
< 5 | COCCOc1c(Cl)ccc2c(=O)c3ccccc3n(CC(=O)O)c12 [Compound 330]
> 50 | CCSc1ccc2c(=O)c3ccc(Cl)c(OC)c3n(CC(=O)O)c2c1 [Compound 231]
> 50 | COc1c(Cl)ccc2c(=O)c3ccc(-c4ccc(N)cc4)cc3n(CC(=O)O)c12 [Compound 274]
< 5 | COc1c(Cl)ccc2c(=O)c3ccc(Nc4cnccn4)cc3n(CC(=O)O)c12 [Compound 263]

The remaining lines, values behind:

Compound | Emax [%]
COc1c(Cl)ccc2c(=O)c3ccc(-c4cccc(O)c4)cc3n(CC(=O)O)c12 [Compound 270] | > 50
Cc1ccc2c(=O)c3ccc(Cl)c(N(C)C)c3n(CC(=O)O)c2c1 [Compound 308] | > 50
COc1c(Cl)ccc2c(=O)c3ccc(-c4ccc(O)cc4)cc3n(CC(=O)O)c12 [Compound 269] | > 50
Cc1ccc2c(=O)c3ccc(Cl)c(-c4ccccc4)c3n(CC(=O)O)c2c1 [Compound 326] | > 50
CCc1ccc2c(=O)c3ccc(Cl)c(OC)c3n(CC(=O)O)c2c1 [Compound 294] | > 50
COc1c(Cl)ccc2c(=O)c3ccc(NC4CCC4)cc3n(CC(=O)O)c12 [Compound 292] | > 50
C=CCOc1c(Cl)ccc2c(=O)c3ccc(C)cc3n(CC(=O)O)c12 [Compound 311] | > 50
O=C(O)Cn1c2ccccc2c(=O)c2ccc(Br)c(Br)c21 [Compound 108] | 5 to 25
O=C(O)Cn1c2ccccc2c(=O)c2ccc(Cl)c(OCCCO)c21 [Compound 329] | < 5
CCOc1c(Cl)ccc2c(=O)c3ccccc3n(CC(=O)O)c12 [Compound 244] | > 50
